Data from US4533554A, “Quinone derivatives and use” (Takeda Chemical Industries, Ltd., priority 1979, dated 1985).

Assays:
[1] = system: SRS-A (slow reacting substance of anaphylaxis) production and release; experiment: Inhibitory effect on SRS-A (slow reacting substance of anaphylaxis) production and release in sensitised guinea-pig lung fragments; format: cell-based; conditions: guinea-pig lung fragments sensitised with egg albumin
Experimental: The inhibitory effect on SRS-A production and release was examined by the method of Orange and Moore (J. Immunol., 116, 392-397, 1976). Quinone derivatives were added to guinea-pig lung fragments sensitised with egg albumin as the antigen, and the amount of SRS-A produced and released as a consequence was assayed by the method of Brocklehust (J. Physiol., 151, 416-435, 1960).

[2] = system: mortal activity of arachidonic acid in mouse; experiment: Suppression of mortal activity of arachidonic acid in mouse; format: in vivo; conditions: 300 mg/kg oral, 1 hour before arachidonic acid 60 mg/kg i.v., male JCL:ICR mice, read-out: Number of survival mice/Total number of mice (converted)
Experimental: Male mice (four weeks old, JCL:ICR) were used in this experimental. Quinone derivatives were suspended with arabin to administrate per OS. After one hour of the oral administration at a dose of 300 mg/kg of a quinone derivative, an aqueous solution of arachidonic acid (20 mg/ml, pH 8.8) was intravenously administrated at dose of 60 mg/kg of arachidonic acid from mouse tail vein. The suppressive effects were shown in Table 10 by the ratio of the number of survival mice to the total number of mice administrated the test compound.

[3] = system: SHR (spontaneously hypertensive rats); experiment: Blood-pressure reducing action in SHR (spontaneously hypertensive rats); format: in vivo, rat; conditions: oral, L-methyldopa 40 mg/kg, test compound equimolar amount
Experimental: The blood-pressure reducing action of the compounds obtained in the above-mentioned Examples was confirmed with the use of SHR (spontaneously hypertensive rats) in accordance with the method of Watson and Ludden (L. S. Watson & C. T. Ludden in "New Antihypertensive Drugs", A. Scriabin and C. S. Sweet, Ed., Spectrum Publications, New York, 1976, page 87). As a control compound, L-methyldopa was orally administered in a dose of 40 mg/kg, while an equimolar amount of a test compound was orally given, to examine the effect. Results are shown in Table 8, where the marks, (+++), (++), (+) and (±), indicate the blood-pressure reducing actions of 31 to 40 mmHg, 21 to 30 mmHg, 11 to 20 mmHg and not more than 10 mmHg, respectively.

Compound	responders at 300 mg/kg [2]	Blood-pressure reducing action [3]	other results
COC1=C(OC)C(=O)C(C/C=C(\C)CC/C=C(\C)CC/C=C(\C)CCC(=O)N2CCN(Cc3ccc4c(c3)OCO4)CC2)=C(C)C1=O [Ia-11]	80%	–	inhibition at 1 µM ([1]; Cavia porcellus): 15 ± 5.6%
CC1=C(C/C=C(\C)CC/C=C(\C)CC/C=C(\C)CCC(=O)O)C(=O)c2ccccc2C1=O [IIa-4]	–	+++ (31 to 40 mmHg)	inhibition at 1 µM ([1]; Cavia porcellus): 24.3 ± 4.2%
COC1=C(OC)C(=O)C(C/C=C(\C)CC/C=C(\C)CCC(=O)N(C(=O)NC2CCCCC2)C2CCCCC2)=C(C)C1=O [Ia-48]	40%	–	–
CC1=C(C)C(=O)C(C/C=C(\C)CC/C=C(\C)CCC(=O)O)=C(C)C1=O [IIa-7]	–	–	inhibition at 10 µM ([1]; Cavia porcellus, 10 μM): 40.2 ± 7.3%
CC1=C(C/C=C(\C)CC/C=C(\C)CC/C=C(\C)CC/C=C(\C)CCC(=O)O)C(=O)c2ccccc2C1=O [IIa-5]	–	+++ (31 to 40 mmHg)	–
CC1=C(C/C=C(\C)CC/C=C(\C)CCC(=O)O)C(=O)c2ccccc2C1=O [IIa-3]	40%	+++ (31 to 40 mmHg)	inhibition at 10 µM ([1]; Cavia porcellus, 10 μM): 38.6 ± 4.3%
COC1=C(OC)C(=O)C(C/C=C(\C)CC/C=C(\C)CCC(=O)OC/C=C(\C)CC/C=C(\C)CCC=C(C)C)=C(C)C1=O [IIa-16]	–	++ (21 to 30 mmHg)	–
CC1=C(C)C(=O)C(C/C=C(\C)CC/C=C(\C)CC/C=C(\C)CC/C=C(\C)CCC(=O)O)=C(C)C1=O [IIa-9]	–	++ (21 to 30 mmHg)	–
CC(C)=CCC/C(C)=C/COC(=O)CC/C(C)=C/CC/C(C)=C/CC1=C(C)C(=O)c2ccccc2C1=O [IIa-20]	–	++ (21 to 30 mmHg)	–
COC1=C(OC)C(=O)C(C/C=C(\C)CC/C=C(\C)CC/C=C(\C)CC/C=C(\C)CC/C=C(\C)CC/C=C(\C)CC/C=C(\C)CC/C=C(\C)CC/C=C(\C)CC/C=C(\C)CCC(=O)O)=C(C)C1=O [IIa-15]	–	++ (21 to 30 mmHg)	–
COC1=C(OC)C(=O)C(C/C=C(\C)CC/C=C(\C)CCC(=O)N2CCN(Cc3cc(OC)c(OC)c(OC)c3)CC2)=C(C)C1=O [Ia-6]	40%	–	inhibition at 1 µM ([1]; Cavia porcellus): 26.8 ± 2.2%
CC(C)=CCC/C(C)=C/CC/C(C)=C/COC(=O)CC/C(C)=C/CC/C(C)=C/CC1=C(C)C(=O)c2ccccc2C1=O [IIa-21]	–	++ (21 to 30 mmHg)	–
COC1=C(OC)C(=O)C(C/C=C(\C)CC/C=C(\C)CCC(=O)O)=C(C)C1=O [IIa-10]	–	–	inhibition at 1 µM ([1]; Cavia porcellus): 35 ± 6.3%
COC1=C(OC)C(=O)C(C/C=C(\C)CC/C=C(\C)CC/C=C(\C)CC/C=C(\C)CCC(=O)O)=C(C)C1=O [IIa-13]	–	++ (21 to 30 mmHg)	–
COC1=C(OC)C(=O)C(C/C=C(\C)CC/C=C(\C)CC/C=C(\C)CCC(=O)O)=C(C)C1=O [IIa-12]	–	++ (21 to 30 mmHg)	inhibition at 1 µM ([1]; Cavia porcellus): 21.8 ± 8.5%
COC1=C(OC)C(=O)C(C/C=C(\C)CCC(=O)N2CCN(C/C=C(\C)CC/C=C(\C)CCC=C(C)C)CC2)=C(C)C1=O [Ia-3]	40%	–	–
COC1=C(OC)C(=O)C(C/C=C(\C)CC/C=C(\C)CCC(=O)OC/C=C(\C)CCC=C(C)C)=C(C)C1=O [IIa-19]	–	++ (21 to 30 mmHg)	–
NC1=NN(c2cccc(C(F)(F)F)c2)CC1 [BW-755c, reference compound]	–	–	inhibition at 10 µM ([1]; Cavia porcellus, 10 μM): 4.7 ± 3.7%; inhibition at 100 µM ([1]; Cavia porcellus, 100 μM): 15.3 ± 4.3%
COC1=C(OC)C(=O)C(C/C=C(\C)CC/C=C(\C)CCC(N)=O)=C(C)C1=O [Ia-7]	40%	–	–
C[C@](N)(Cc1ccc(O)c(O)c1)C(=O)O [L-Methyldopa, reference compound]	–	+++ (31 to 40 mmHg)	–
COC1=C(OC)C(=O)C(C/C=C(\C)CC/C=C(\C)CC/C=C(\C)CC/C=C(\C)CC/C=C(\C)CC/C=C(\C)CC/C=C(\C)CCC(=O)O)=C(C)C1=O [IIa-14]	–	++ (21 to 30 mmHg)	–
Sodium baikalein phosphate [BSP, reference compound]	–	–	Inhibitory Effect on SRS-A Production (% inhibition of production and release) ([1]; 10 μM): 18.7 ± 6.6%; Inhibitory Effect on SRS-A Production (% inhibition of production and release) ([1]; 100 μM): 50.8 ± 10.7%
COC1=C(OC)C(=O)C(C/C=C(\C)CC/C=C(\C)CCC(=O)N2CCOCC2)=C(C)C1=O [Ia-9]	40%	–	–
COc1cc(CN2CCN(C(=O)CC/C(C)=C/CC/C(C)=C/CC/C(C)=C/CC3=C(C)C(=O)c4ccccc4C3=O)CC2)cc(OC)c1OC [Ia-28]	100%	–	–
